Measured values as given in patent publication US8715155B2, “Embryo development and survival” (University of Tennessee Research Foundation, priority 2005, dated 2014).

Tests used:
[1] = tested on: developmentally challenged bovine oocytes; test: Maturation of developmentally challenged oocytes with a PGF2α antagonist, then fertilization; type: cell-based
Procedure: In a second study, bovine oocytes were obtained from ovaries of slaughtered cows. Oocytes that were developmentally challenged (development of oocyte to blastocyst less than 20%) were included in the study. The oocytes were matured for 24 hours in a standard maturation medium that either contained the PGF2α antagonist AL-8810 (treatment group) or that lacked the PGF2α antagonist (control group) and were then fertilized. Oocytes were observed on day 3 for the presence of cleavage and on day 9 for the presence of blastocyst development. The percentage of oocytes in that underwent cleavage and that developed into blastocysts was determined.

[2] = tested on: Pre-compacted 16- to 32-cell stage bovine embryos; details: 1000 nM AL-8810 + 1 ng/ml PGF, 48 h culture, assessed day 8
Procedure: Pre-compacted 16- to 32-cell stage bovine embryos (day 4 post fertilization) are washed in KSOM-PVA and divided into four groups, each of which is cultured for 48 hours in KSOM-PVA containing one of the following: (1) 1000 nM AL-8810, n=95 (AL-8810 group); (2) 1 ng/ml PGF, n=91 (PGF group); (3) 1000 nM AL-8810+1 ng/ml PGF, n=90 (AL-8810+PGF group); or (4) KSOM-PVA without AL-8810 or PGF, n=84 (Control group).
Following the 48 hour culture, embryos from each group are placed in HEPES-TALP and embryonic development is assessed by a technician who is uninformed of the treatments of the embryos in each group. Embryos from each treatment group are washed in KSOM-PVA and transferred to a 4-well plate with KSOM-PVA for further culture until day 8 post fertilization, when embryonic development is again assessed.

[3] = tested on: embryos placed in recipient animals; test: Pre-treatment of embryos in recovery and/or freezing/transfer media before embryo transfer; type: in vivo, cattle
Procedure: Approximately 100 embryo recoveries are performed on day 7 after estrus in beef and dairy cows (lactating and dry). Cows are superovulated (Folltropin) and embryos recovered, evaluated, and frozen (1.5 M Ethylene Glycol; EG) as previously reported (Schrick et al., Biol. Reprod. 49:617-621 (1993)). Half of the embryo recoveries occur utilizing 1 L of each of the following alternative media preparations: 1) Embryo recovery (flush) media (CON, n=50 recoveries; Dulbecco's PBS+1% FCS; GibcoBRL, Cat.#21300-025; Grand Island, N.Y.) or 2) Embryo recovery (flush) media+AL-8810 (TRT, n=50 recoveries; 430 nM of AL-8810).
Following filtering, embryo dishes are searched, embryos removed (placed in Vigro), and evaluated for quality and development (IETS guidelines). […]
Over a two year period, recipient animals (dairy and beef cows and heifers; n=500) have estrus synchronized utilizing GnRH/CIDR/Estrumate protocol consisting of administration of 100 ug GnRH (Cysterolin; Merial) and CIDR (intravaginal progesterone releasing device; Pfizer) insertion on day 0, CIDR removal and injection of 2 mL Estrumate (Schering-Plough Animal Health) on day 7, and estrous detection (twice daily) from days 8 through 12. […] Embryos used for ET are thawed (10 sec air thaw; 30 sec in 25° C. water bath), straw labeling (embryo ID) information recorded, and recipient ID collected. […]

[4] = tested on: Pre-compacted 16- to 32-cell stage bovine embryos; test: Dose response study of AL-8810 on embryo development; type: cell-based; details: 96 h
Procedure: Incubation conditions are 5.5% CO2, 7% O2, and 87.5% N2 at 38.5° C. The four groups are as follows: (1) KSOM-PVA+AL-8810 at 1000 nM, n=93 (High AL-8810 group); (2) KSOM-PVA+AL-8810 at 500 nM, n=95 (Medium AL-8810 group); (3) KSOM-PVA+AL-8810 at 250 nM, n=93 (Low AL-8810 group); and (4) KSOM-PVA with an equivalent volume of DMSO (dimethylsulfoxide) as used for the first three groups, n=95 (Control group).

[5] = tested on: bovine cumulus-oocyte-complexes; test: Maturation of heat-stressed cumulus-oocyte-complexes with a PGF2α antagonist; type: cell-based; details: COC matured at 41.0° C. for first 12 h, AL-8810 at 250, 400 or 1000 nM; FIG. 1
Procedure: In a first study, bovine cumulus-oocyte-complexes were divided into three groups. Each of the three groups were matured for 24 hours under heat-stress conditions at 41.0° C. for 12 hours, followed by 38.5° C. for the remaining 12 hours. A first group, referred to as the development control group, was matured utilizing a standard maturation medium. A second group, referred to as the diluent control group, was matured under the same conditions utilizing the same standard maturation medium to which was added a diluent DMSO (dimethyl sulfoxide). A third group, referred to as the treatment group, was matured under the same conditions utilizing the same standard maturation medium to which was added the PGF2α antagonist AL-8810 at a concentration of 250, 400, or 1000 nM. To prepare the diluent control, DMSO was added to the OMM to yield the same concentration as would be contained in the PGF2α antagonist dose being tested (0.0025, 0.004 and 0.01% v/v final concentration for the 250, 400 and 1000 nM doses, respectively). The generalized linear mixed models (GLIMMIX) procedure of SAS version 9.1 (SAS Institute; Cary, N.C.; 2003) was used to perform analyses. Data are presented as least square means±the standard error of the mean. […]

[6] = oocytes matured 24 h with AL-8810, of those that cleaved

Compound: O=C(O)CCC/C=C\CC1C(O)CC(F)C1/C=C/C(O)C1Cc2ccccc2C1 (stereo not drawn) [AL-8810, 11β-fluoro-15-epi-15-indanyl-tetranor PGF2α]
- deleterious or toxic effect on oocytes or developing embryos (stage and development of blastocysts) ([1]; oocytes matured 24 h with AL-8810): does not exert a deleterious or toxic effect
- Cleaved (%) ([1]; oocytes matured 24 h with AL-8810, observed day 3): 60.4%
- Blastocyst/PZ (%) ([1]; oocytes matured 24 h with AL-8810, observed day 9): 17.7%
- 2-cell (%) [1, 6]: 7.2%
- 4-cell (%) [1, 6]: 15.2%
- 8 to 16-cell (%) [1, 6]: 76.7%
- embryonic development in the presence of PGF [2]: decreases the negative effects of PGF on embryonic development
- pregnancy rates ([3]; AL-8810 (430 nM in flush media) in embryo recovery and/or freezing/transfer media): increases pregnancy rates
- abnormalities in calves resulting from the pregnancies ([3]; embryos pre-treated with AL-8810 in media): No abnormalities are observed in the calves
- early embryonic development of pre-compacted embryos ([4]; AL-8810 at 250, 500 and 1000 nM, vs control group): does not decrease or increase early embryonic development
- embryonic development ([4]; High AL-8810 group (1000 nM), vs 49.9+/-3.9% control, p<0.05): 60.3%+/−3.9
- blastocyst development after heat stress [5]: the effect of heat stress to reduce blastocyst development was no longer observed
